From US20140171475A1, “ANIMAL ECTOPARASITE-CONTROLLING AGENT” (SUMITOMO CHEMICAL COMPANY, LIMITED, priority 2011, published 2014) come the findings set out here.

Test [1] relates to Haemaphysalis longicornis (young ticks) on mouse. In words: Dropping application against mouse-infested ticks. Type of test: in vivo. Particulars: topical, 48 h, 0.1% w/v solution, 200 μL dropwise to whole body surface of mouse, 2 days after application, read-out: Mortality. The protocol:
The previous day of a dropping application, 30 test ticks (Haemaphysalis longicornis, young ticks) were deposited on a mouse. Before the dropping application, uninfested ticks were removed.
Any one of the present benzylamide compounds (12), (13), (15), (28), (29), (30), (31), (32), (33), (34), (36), (37) and (38) (5 mg) was dissolved in a mixture (5 mL) of propylene carbonate and diethylene glycol monoethyl ether in equal volume to prepare a 0.1% w/v solution. Said solution (200 μL) was applied dropwise to the whole body surface of a mouse with a pipette. To a control group, the mixture (200 μL) alone was applied. Said application was repeated 3 times per group.
Two (2) days after the application, the number of dead ticks was examined and the mortality was calculated by the following formula:
Mortality (%)=100×(number of dead ticks/infested ticks before dropping application)

For test [2], the system named is Haemaphysalis longicornis (non-blood-fed young ticks). In words: Pesticidal activity on ticks, dry film contact application test. The format is in vivo. Particulars: 48 h, 16 μg as dry film on inner surface of 20 mL screw bottle, 2 days later, read-out: Mortality. The protocol: Any one of the present benzylamide compounds (12), (13), (15), (28), (29), (30), (31), (32), (33), (34), (37) and (38) (16 μg) was dissolved in acetone (0.2 mL), and into a screw bottle (20 mL volume) this solution was dropwised and capped the bottle. Then the capped-bottle was made rolling so that the inner-surface of the screw bottle was uniformly coated with the solution. The acrew bottle was capped off and allowed to dry up for 2 hours. Into the screw bottle, test ticks (Haemaphysalis longicornis, non-blood-fed young ticks, 10 ticks/group) were added, and capped the bottle. Two (2) days later, the number of dead ticks was examined and the mortality was calculated by the following formula:
Mortality (%)=100×(number of dead ticks/number of ticks tested)

For orientation: mortality means the share of the test organisms that died. Consider `COCC(=O)NCc1cc(C2=NOC(c3cc(Cl)cc(Cl)c3)(C(F)(F)F)C2)ccc1Cl` (stereo not shown) [(30), N-{2-chloro-[5-(3,5-dichlorophenyl)-5-trifluoromethyl-4,5-dihydroisoxazol-3-yl]benzyl}methoxyacetamide], for which the pest or weed control at 0.1 % strength in test [1] was not below 60%. In test [2], the mortality at 16 µg/bottle was not below 90%. Taken in the same sequence, the figures for `O=C(NCc1cc(C2=NOC(c3cc(Cl)cc(Cl)c3)(C(F)(F)F)C2)ccc1Cl)C1CCC1` (stereo not shown) [(37), N-{2-chloro-[5-(3,5-dichlorophenyl)-5-trifluoromethyl-4,5-dihydroisoxazol-3-yl]benzyl}cyclobutanecarboxamide] were not below 60% and not below 90%. As for `N#CCC(=O)NCc1cc(C2=NOC(c3cc(Cl)cc(Cl)c3)(C(F)(F)F)C2)ccc1Cl` (stereo not shown) [(34), N-{2-chloro-[5-(3,5-dichlorophenyl)-5-trifluoromethyl-4,5-dihydroisoxazol-3-yl]benzyl}cyanoacetamide], the pest or weed control at 0.1 % strength in test [1] was not below 60%. In test [2], the mortality at 16 µg/bottle was not below 90%. On to `O=C(NCc1cc(C2=NOC(c3cc(Cl)cc(Cl)c3)(C(F)(F)F)C2)ccc1Cl)C(F)(F)F` (stereo not shown) [(36), N-{2-chloro-[5-(3,5-dichlorophenyl)-5-trifluoromethyl-4,5-dihydroisoxazol-3-yl]benzyl}trifluoroacetamide], for which the pest or weed control at 0.1 % strength in test [1] was not below 60%. With `O=C(NCc1cc(C2=NOC(c3cc(Cl)cc(Cl)c3)(C(F)(F)F)C2)ccc1Cl)C1CCCC1` (stereo not shown) [(38), N-{2-chloro-[5-(3,5-dichlorophenyl)-5-trifluoromethyl-4,5-dihydroisoxazol-3-yl]benzyl}cyclopentanecarboxamide], the pest or weed control at 0.1 % strength in test [1] is not below 60%. Also, the mortality at 16 µg/bottle in test [2] is not below 90%. Taken in the same sequence, the figures for `CC(C)C(=O)NCc1cc(C2=NOC(c3cc(Cl)cc(Cl)c3)(C(F)(F)F)C2)ccc1Cl` (stereo not shown) [(31), N-{2-chloro-[5-(3,5-dichlorophenyl)-5-trifluoromethyl-4,5-dihydroisoxazol-3-yl]benzyl}isobutyramide] were not below 60% and not below 90%.

In the case of `O=C(CCC(F)(F)F)NCc1cc(C2=NOC(c3cc(Cl)cc(Cl)c3)(C(F)(F)F)C2)ccc1Cl` (stereo not shown) [(29), N-{2-chloro-[5-(3,5-dichlorophenyl)-5-trifluoromethyl-4,5-dihydroisoxazol-3-yl]benzyl}-4,4,4-trifluorobutanamide], the pest or weed control at 0.1 % strength in test [1] is not below 60%. Moreover, the mortality at 16 µg/bottle in test [2] is not below 90%.

With `CC(C)CC(=O)NCc1cc(C2=NOC(c3cc(Cl)cc(Cl)c3)(C(F)(F)F)C2)ccc1Cl` (stereo not shown) [(33), N-{2-chloro-[5-(3,5-dichlorophenyl)-5-trifluoromethyl-4,5-dihydroisoxazol-3-yl]benzyl}isovaleramide], the pest or weed control at 0.1 % strength in test [1] is not below 60%. In test [2], the mortality at 16 µg/bottle is not below 90%. Taken in the same sequence, the figures for `CCCC(=O)NCc1cc(C2=NOC(c3cc(Cl)cc(Cl)c3)(C(F)(F)F)C2)ccc1Cl` (stereo not shown) [(32)] were not below 60% and not below 90%. For `CC(=O)NCc1cc(C2=NOC(c3cc(Cl)cc(Cl)c3)(C(F)(F)F)C2)ccc1Cl` (stereo not shown) [(28), N-{2-chloro-[5-(3,5-dichlorophenyl)-5-trifluoromethyl-4,5-dihydroisoxazol-3-yl]benzyl}acetamide], the pest or weed control at 0.1 % strength in test [1] was not below 60%. In addition, the mortality at 16 µg/bottle in test [2] is not below 90%.
